Source: patent US20200397332A1, “NON-INVASIVE METHOD AND DEVICE FOR DETERMINING DRUG CONCENTRATIONS IN BLOOD” (priority 2019, published 2020)

Key:
clinical [1] = details: human, in vivo, po
From the text: FIG. 6 is illustrative of the GM magnetic signal vs time at different pressures by adjusting the pressure applied by the pressure cuff 12 on the arm of the patient. Initially, the cuff pressure is zero and the GM signal is flat. After around 10 seconds, the cuff pressure is increased and after 20 seconds, the cuff pressure reaches approximately 120 mm Hg. […] The GM signal is almost flat from 20 seconds to 60 seconds because the flow of blood through the blood vessel is stopped. When the cuff pressure was released quickly at about 60 seconds, the GM signal returned to the level similar to the initial measurement. […] At the pressure of 120 mm Hg or greater there is, no arterial blood flow and no electrical current. The difference of two levels in the beginning and around 60 seconds gives the absolute value of the magnetic field which is detected by the GM sensor. […]
Basic data for the detected drugs includes the initial dosages of the drug Din which depend on the maximum concentration Cmax in blood at a certain time Tmax. […] The absolute value of the drug concentration is determined based on the measured signal Vs and time Tmax at which the concentration of drug is detected at a maximum value in the blood stream.
The signal Vs was measured at different times after ingestion of the caffeine to verify the time dependence of the drug concentration in blood. […]

[2] = Din=50 mg caffeine; taken from known drug data; cited from earlier work
[3] = caffeine: one cup of coffee (100 mg caffeine); alcohol: no sign of alcohol in blood; cited from earlier work
[4] = Din=500 mg acetaminophen; taken from known drug data; cited from earlier work
clinical [5] = details: human, in vivo, po; remark: listed apart in the source
Procedure: The Tmax can be identified from this dependence.
FIG. 11 is illustrative of the relative change in charge of the ions inside the arterial blood stream vs time after ingesting 500 mg of acetaminophen. […] The Tmax can be identified from this graph, and is detected as being approximately 30 min.
The initial dosage is Din is ˜500 mg of acetaminophen. The maximum drug concentration in arterial blood stream is 60 mg/L at Din=500 mg ([…]) and Tmax˜30 min from the measurements from the GM sensor.
Vs. The next step is to calculate (Vs0−Vs)0.

Tmax (clinical [5]) [h]	Compound	Tmax (clinical [1]) [h]	Cmax, maximum drug concentration in the arterial blood stream [2]	time after which the level in blood has declined to zero [3]	Cmax, maximum drug concentration in arterial blood stream [4] [µg/mL]
	Cn1c(=O)c2c(ncn2C)n(C)c1=O [caffeine]	~2	about 1 mg/L	about 4 hours	
	CCO [alcohol]			about 12 hours	
~0.5	CC(=O)Nc1ccc(O)cc1 [acetaminophen]				60
